Test results published in US6821442B1, “Method and apparatus for control of aquatic vertebrate and invertebrate invasive species” (priority 2002, dated 2004).
In brackets after ≈: the same amount, converted by molar mass. Where two headings read alike, the source gives them in different places.

Columns and labels:
[1] = tested on: Asian clams; settings: cited from earlier work
[2] = tested on: zebra mussels; settings: cited from earlier work
[3] = tested on: Asian clam (Corbicula fluminea); assay: LT50 of Asian clam exposed to supersaturated gas, standard laboratory methods (APHA 1995); format: in vivo
Text: Gas supersaturation (ΔP>0) with CO2, air or combustion off-gas is established and maintained for a time period shown to cause a selected mortality rate within the population of the target species. We have established LT50 values (LT50 is defined as the time to kill 50 per cent of a targeted species) for the Asian clam (Corbicula fluminea) exposed to elevated concentrations of carbon dioxide and a simulated combustion gas mixture ([…]; N2=85.7%; CO2=13.6%; SO2=0.284%). The LT50 values were established using standard laboratory methods (APHA 1995). With carbon dioxide exposure, LT50 was described by the model (R^2=0.86):
LT50 values decreased from a high of 270 min at 260 mm Hg PCO2 to a low of 90 min at 2070 mm Hg gage pressure. This later value represents a 27 fold decrease in LT50 below that established by McMahon et al (1995) at a PCO2 of 760 mm Hg (absolute pressure). Combustion gas requires longer exposure periods given a lower XCO2. The LT50 at a operating pressure of 2070 mm Hg is about 350 min. […] Lower levels of LT50 are anticipated for fish and other aquatic exotics of concern.

[4] = tested on: zebra mussels; settings: 25° C., cited from earlier work

O=C=O [carbon dioxide]
concentration causing toxicity [1]: 500 mg/L
concentration inducing a narcotizing effect [1]: 100 mg/L
LC50 ([2]; 48 h, 18° C.): 196 mg/L (≈ 4.45 mM)
LC50 ([2]; 48 h, 22° C.): 290 mg/L (≈ 6.59 mM)
LC50 ([2]; 96 h, 18° C.): 74 mg/L (≈ 1.68 mM)
LC50 ([2]; 96 h, 22° C.): 81 mg/L (≈ 1.84 mM)
exposure period after which sub-lethal narcotizing effects (gaping response) were induced [2]: 4 h
LT50 ([3]; 260 mm Hg PCO2, Asian clam): 270 min
fold decrease in LT50 below that of McMahon et al at PCO2 760 mm Hg (absolute pressure) ([3]; 2070 mm Hg gage pressure): 27 fold
LT50 ([3]; 2070 mm Hg gage pressure, Asian clam): 90 min
LT50 ([4]; PCO2 75 torr, zebra mussels): 78 h
mortality ([4]; PCO2 75 torr, zebra mussels): complete mortality
effect on byssal threads ([4]; PCO2 of 38 torr): detachment of byssal threads and inhibition of byssal thread formation
